The values below come from patent publication US11987604B2, “Fusion-proteins based on human ferritin and protease-cleavable peptides and their use as chemotherapeutics carriers” (THENA BIOTECH S.R.L., priority 2017, dated 2024).

Holding throughout (format): cell-based
Assay [1] deals with pancreatic PaCa 44 cancer cells. Nature of the assay: XTT viability assay, PaCa 44. The note with it: Homo sapiens, Paca44 cells, read-out: killing efficacy (IC50). For orientation: Tetrazolium dyes change colour on reduction, which living cells bring about.
Assay [2] has as its system pancreatic Capan 1 cancer cells. Nature of the assay: XTT viability assay, Capan 1. The following applies: Homo sapiens, Capan 1 cells, read-out: killing efficacy (IC50).
Assay [3] concerns pancreatic MiaPaCa2 cancer cells. Description: XTT viability assay, MiaPaCa2. The note with it: Homo sapiens, MIA PaCa-2, read-out: killing efficacy (IC50).
The next assay has as its system SW620 colon cancer cells. Description: Cell internalization and localization by confocal microscopy, SW620. The following applies: SW620, 3 h incubation at 37° C., 20 μM MIT. The protocol: (§1) Left panels: Lamin A/C staining (nuclear membrane marker, green); central panels: MIT (blue); right panels: merge. The white bar indicates a 10 μm length.
(§2) MIT concentration is 20 μM in all experiments. The white bar indicates a 20 μm length.
(§3) To determine whether MIT containing HFt based constructs undergo cell surface binding and/or internalization, they were incubated with colon cancer cells SW480 and SW620 at 37° C. for 1 or 3 h and MIT associated fluorescence was visualized by confocal microscopy. […] In particular, MIT localizes in intranuclear structures assumed to be nucleoli on the basis of size, position and shape, as previously proposed for colon carcinoma and breast cancer cells.

The subject of the next assay is SW480 colon cancer cells. Description: Cell internalization and localization by confocal microscopy, SW480. The note with it: SW480, 3 h incubation at 37° C., 20 μM MIT. As to the method: as §1, §2, §3

Consider `Nc1ccn([C@@H]2O[C@H](CO)[C@@H](O)C2(F)F)c(=O)n1` [Gemcitabine], for which the IC50 in assay [1] was 6750 nM; in assay [2], 2800 nM; in assay [3], 1150 nM.

As for `O=C1c2c(O)ccc(O)c2C(=O)c2c(NCCNCCO)ccc(NCCNCCO)c21` [MIT, mitoxantrone], the “MIT localization in cells” value in the assay on SW620 colon cancer cells and with SW480 colon cancer cells was “partly present also in the cytoplasm” in each case.

A word on the IC50: it is the concentration that gives 50% inhibition.
